One assay concerns SARS-CoV-2. As to the kind of experiment: microbe, parasite or virus in culture. The assay is classed as cell-based. The following applies: Severe acute respiratory syndrome coronavirus 2, read-out: Antiviral EC50.
A further assay has as its target SARS-CoV-2 3CLpro (Severe acute respiratory syndrome coronavirus 2, UniProt P0DTD1). As to the kind of experiment: biochemical.

The term EC50 denotes the concentration that produces a half-maximal response. As for `O=C(Cn1nnc2ccccc21)N(Cc1ccsc1)c1ccc(-c2ccccc2)cc1`, the EC50 with SARS-CoV-2 lay in the range of 50 to 100 µM.
In general, IC50 refers to the concentration at which inhibition is half-maximal. For the compound `O=C(Cn1ccc2ccccc21)N(Cc1ccsc1)c1ccc(-c2ccccc2)cc1`, on SARS-CoV-2 3CLpro, the IC50 was > 100 µM. Besides, the EC50 in the assay on SARS-CoV-2 is > 100 µM.
On to `O=C(Cn1nnc2ccccc21)N(Cc1ccc(-c2ccccc2)cc1)Cc1ccsc1`, for which the 50% inhibitory concentration (IC50) against SARS-CoV-2 3CLpro is > 100 µM. Besides, the EC50 with SARS-CoV-2 was 5 to 50 µM.
For `O=C(Cn1nnc2ccccc21)N(Cc1ccc(-c2ccccn2)cc1)Cc1ccsc1`, in that order: 50 to 100 µM and > 100 µM.

Values taken from patent US20240101541A1 (priority 2020, published 2024).
